Patent US20050032873A1, “3-Amino chroman and 2-amino tetralin derivatives” (Wyeth, priority 2003, published 2005)
Read-outs that look alike come from different tables or passages of the source.

Columns and labels:
serotonin transporter = target: T1, serotonin transporter (Rattus norvegicus, UniProt P31652); test: 5-HT transporter affinity: displacement of 3H-paroxetine from male rat cortical membranes; type: binding; details: for Ki: displacement of 3H-paroxetine, male rat cortical membranes, read-out: 5-HT Transporter Affinity Ki
T1 construct: displace ^3H-paroxetine from male rat cortical membranes; from tissue; host or cells: male rat cortical membranes

[1] = target: T2, cloned human 5-HT1A receptors (Homo sapiens, UniProt P08908); test: 35S-GTPγS binding assay, 5-HT1A function; type: biochemical; details: for EC50: agonist potency; for IC50: antagonist potency, reversal of 8-OH-DPAT, read-out: 5-HT1A Function GTPγS IC50
T2 construct: expressed in transfected cells
T2 sequence (P08908 1-422): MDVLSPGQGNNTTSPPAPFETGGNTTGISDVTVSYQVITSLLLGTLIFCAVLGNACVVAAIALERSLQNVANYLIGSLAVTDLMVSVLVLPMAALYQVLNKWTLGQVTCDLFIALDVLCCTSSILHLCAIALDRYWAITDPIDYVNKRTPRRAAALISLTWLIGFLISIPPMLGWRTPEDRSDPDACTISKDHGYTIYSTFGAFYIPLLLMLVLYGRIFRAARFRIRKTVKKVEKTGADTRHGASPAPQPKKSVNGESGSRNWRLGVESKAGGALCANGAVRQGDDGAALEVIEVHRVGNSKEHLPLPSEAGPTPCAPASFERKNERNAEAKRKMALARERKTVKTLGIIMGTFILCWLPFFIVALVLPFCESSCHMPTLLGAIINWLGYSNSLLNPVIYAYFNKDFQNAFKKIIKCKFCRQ

5-HT1A receptor [2] = target: T3, 5-HT1A receptor (Homo sapiens, UniProt P08908); test: cAMP accumulation assay, 5-HT1A function; type: cell-based; details: for EC50: cells marked EC50 (agonist); for Emax / 5-HT1A Function cAMP (Emax): in brackets after EC50 or IC50; for Emax: read-out: 5-HT1A Function cAMP (Emax); for IC50: cells marked IC50 (antagonist), read-out: 5-HT1A Function cAMP IC50
T3 sequence (P08908 1-422): T2 sequence (P08908 1-422)

5-HT1A receptor [3] = target: T3, 5-HT1A receptor; test: 5-HT1A receptor affinity: displacement of [3H] 8-OH-DPAT; type: binding; design: expressed in transfected cells; details: displacement of [3H] 8-OH-DPAT; CHO cells stably transfected with human 5-HT1A receptors; read-out: 5-HT1A Receptor Affinity Ki
[4] = maximum stimulatory effect, in brackets after EC50, read-out: 5-HT1A Function GTPγS (Emax)
[5] = maximum inhibitory effect, in brackets after IC50
[6] = maximum inhibitory effect, in brackets after IC50, read-out: 5-HT1A Function GTPγS (Imax)

T1 sequence (P31652 whole entry): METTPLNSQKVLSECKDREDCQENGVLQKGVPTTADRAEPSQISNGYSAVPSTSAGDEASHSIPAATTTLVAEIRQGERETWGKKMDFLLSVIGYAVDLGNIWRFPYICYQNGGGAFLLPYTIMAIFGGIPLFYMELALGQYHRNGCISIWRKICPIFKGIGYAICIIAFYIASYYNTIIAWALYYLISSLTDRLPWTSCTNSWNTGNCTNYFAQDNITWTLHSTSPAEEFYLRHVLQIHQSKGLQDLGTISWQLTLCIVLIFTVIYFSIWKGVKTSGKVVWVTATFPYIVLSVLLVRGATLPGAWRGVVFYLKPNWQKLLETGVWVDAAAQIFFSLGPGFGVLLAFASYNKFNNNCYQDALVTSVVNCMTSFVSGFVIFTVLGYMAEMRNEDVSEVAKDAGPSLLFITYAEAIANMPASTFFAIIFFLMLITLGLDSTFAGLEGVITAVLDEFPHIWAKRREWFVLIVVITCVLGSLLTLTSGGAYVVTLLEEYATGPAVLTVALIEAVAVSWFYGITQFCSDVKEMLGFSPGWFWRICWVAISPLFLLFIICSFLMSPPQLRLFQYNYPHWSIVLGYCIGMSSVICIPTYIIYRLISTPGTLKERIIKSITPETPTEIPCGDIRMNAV

Structure (SMILES) | Ki (serotonin transporter) [µM] | EC50 [1] [µM] | Emax [1, 4] [%] | EC50 (5-HT1A receptor [2]) [µM] | Emax (5-HT1A receptor [2]) [%] | Ki (5-HT1A receptor [3]) [µM] | 5-HT Transporter Affinity, % @ 1 μM (serotonin transporter; @ 1 μM) [% @ 1 μM] | 5-HT1A Function GTPγS (Imax) [1, 5] [%] | IC50 (5-HT1A receptor [2]) [µM] | 5-HT1A Function cAMP (Emax) (5-HT1A receptor [2]) [%] | IC50 [1] [µM] | Emax [1, 6] [%]
CCCN(C1COc2cccc(OC)c2C1)[C@H]1CC[C@@H](c2c[nH]c3ccc(F)cc32)CC1 (relative stereo) [Compound 182, cis-N-[4-(5-fluoro-1H-indol-3-yl)cyclohexyl]-5-methoxy-N-propylchroman-3-amine] | 0.128 | 0.893 | 64.5 | 0.184 | 65 | 0.237 |  |  |  |  |  | 
CCCN(C1COc2cccc(OC)c2C1)[C@H]1CC[C@H](c2c[nH]c3ccc(F)cc32)CC1 (relative stereo) [Compound 183, trans-N-[4-(5-fluoro-1H-indol-3-yl)cyclohexyl]-5-methoxy-N-propylchroman-3-amine] |  | 10 | 35 | 0.302 | 65.5 | 0.183 | 53 |  |  |  |  | 
N#Cc1ccc2[nH]cc(CCCN(C3CCC3)[C@@H]3COc4c(F)ccc(C(N)=O)c4C3)c2c1 [Compound 97a, (3S)-3-[[3-(5-cyano-1H-indol-3-yl)propyl](cyclobutyl)amino]-8-fluorochromane-5-carboxamide] | 0.009 |  |  |  | 0 | 0.258 |  |  | 0.581 |  |  | 
CCN(CCCc1c[nH]c2ccc(OC)cc12)C1COc2c(F)ccc(C(N)=O)c2C1 (stereo not shown) [Compound 105, 3-{ethyl[3-(5-methoxy-1H-indol-3-yl)propyl]amino}-8-fluorochromane-5-carboxamide] | 0.236 |  |  | 0.0967 | 81 | 0.0243 |  |  |  |  |  | 
NC(=O)c1ccc(F)c2c1C[C@@H](N(CCCc1c[nH]c3c(F)cc(F)cc13)CC1CC1)CO2 [Compound 147, (3R)-3-{(cyclopropylmethyl)[3-(5,7-difluoro-1H-indol-3-yl)propyl]amino}-8-fluorochromane-5-carboxamide] | 0.0107 |  |  |  | 0 | 0.00304 |  |  | 0.505 |  |  | 
CC(C)CN(CCCc1c[nH]c2ccc(F)cc12)C1COc2cccc(C(N)=O)c2C1 (stereo not shown) [Compound 151, 3-[[3-(5-fluoro-1H-indol-3-yl)propyl](isobutyl)amino]chromane-5-carboxamide] | 1.19 |  |  | 0.168 | 94 | 0.102 |  |  |  |  |  | 
CCCCN(CCCc1coc2c(OC)cccc12)C1COc2c(F)ccc(C(N)=O)c2C1 (stereo not shown) [Compound 166, 3-{butyl[3-(7-methoxy-1-benzofuran-3-yl)propyl]amino}-8-fluorochromane-5-carboxamide] | 0.498 |  |  |  | 0 | 0.0142 |  |  | 0.301 |  |  | 
CCCN(CCCCc1coc2c(OC)cccc12)[C@H]1COc2c(F)ccc(C(N)=O)c2C1 [Compound 172, (3R)-8-fluoro-3-[[4-(7-methoxy-1-benzofuran-3-yl)butyl](propyl)amino]chromane-5-carboxamide] | 0.516 |  |  |  | 0 | 0.497 |  |  | 0.379 |  |  | 
NC(=O)c1ccc(F)c2c1CC(N(CCCCn1ccc3cccc(F)c31)C1CCC1)CO2 (stereo not shown) [Compound 192, 3-{Cyclobutyl[4-(7-fluoro-1H-indol-1-yl)butyl]amino}-8-fluorochromane-5-carboxamide] | 0.0393 |  |  |  |  | 0.0399 |  |  |  |  | 1.75 | 86
CCN(CCCCn1ccc2ccc(F)cc21)C1COc2c(F)ccc(C(N)=O)c2C1 (stereo not shown) [Compound 193, 3-{Ethyl[4-(6-fluoro-1H-indol-1-yl)butyl]amino}-8-fluorochromane-5-carboxamide] | 0.0156 |  |  | 0.117 | 89 | 0.0216 |  |  |  |  |  | 
CCCN(CCCCn1ccc2ccc(F)cc21)C1COc2c(F)ccc(C(N)=O)c2C1 (stereo not shown) [Compound 194, 8-Fluoro-3-[[4-(6-fluoro-1H-indol-1-yl)butyl](propyl)amino]chromane-5-carboxamide] | 0.07 |  |  | 0.0741 | 81 | 0.0107 |  |  |  |  |  | 
NC(=O)c1ccc(F)c2c1CC(N(CCCCn1ccc3ccc(F)cc31)C1CCC1)CO2 (stereo not shown) [Compound 196, 3-{Cyclobutyl[4-(6-fluoro-1H-indol-1-yl)butyl]amino}-8-fluorochromane-5-carboxamide] | 0.123 |  |  |  |  | 0.0128 |  |  |  |  | 0.428 | 100
CCCN(CCCCn1ccc2cc(F)ccc21)C1COc2c(F)ccc(C(N)=O)c2C1 (stereo not shown) [Compound 198, 8-Fluoro-3-[[4-(5-fluoro-1H-indol-1-yl)butyl](propyl)amino]chromane-5-carboxamide] | 0.114 |  |  | 0.0677 | 82 | 0.00654 |  |  |  |  |  | 
NC(=O)c1ccc(F)c2c1CC(N(CCCCn1ccc3cc(F)ccc31)CC1CC1)CO2 (stereo not shown) [Compound 199, 3-{(Cyclopropylmethyl)[4-(5-fluoro-1H-indol-1-yl)butyl]amino}-8-fluorochromane-5-carboxamide] | 0.077 |  |  | 0.0747 | 72 | 0.00544 |  |  |  |  |  | 
NC(=O)c1ccc(F)c2c1CC(N(CCCCn1ccc3cc(F)ccc31)C1CCC1)CO2 (stereo not shown) [Compound 200, 3-{Cyclobutyl[4-(5-fluoro-1H-indol-1-yl)butyl]amino}-8-fluorochromane-5-carboxamide] | 0.241 |  |  |  |  | 0.0108 |  |  |  |  | 1.11 | 100
CCN(CCCCn1ccc2c(F)cccc21)C1COc2c(F)ccc(C(N)=O)c2C1 (stereo not shown) [Compound 201, 3-{Ethyl[4-(4-fluoro-1H-indol-1-yl)butyl]amino}-8-fluorochromane-5-carboxamide] | 0.095 |  |  | 0.21 | 92 | 0.0427 |  |  |  |  |  | 
CCCN(CCCCn1ccc2c(F)cccc21)C1COc2c(F)ccc(C(N)=O)c2C1 (stereo not shown) [Compound 202, 8-Fluoro-3-[[4-(4-fluoro-1H-indol-1-yl)butyl](propyl)amino]chromane-5-carboxamide] | 0.21 |  |  | 0.137 | 78 | 0.014 |  |  |  |  |  | 

Further lines, with some results ahead:

Ki (serotonin transporter) [µM] | EC50 [1] [µM] | Emax [1, 4] [%] | EC50 (5-HT1A receptor [2]) [µM] | Emax (5-HT1A receptor [2]) [%] | Ki (5-HT1A receptor [3]) [µM] | 5-HT Transporter Affinity, % @ 1 μM (serotonin transporter; @ 1 μM) [% @ 1 μM] | 5-HT1A Function GTPγS (Imax) [1, 5] [%] | IC50 (5-HT1A receptor [2]) [µM] | 5-HT1A Function cAMP (Emax) (5-HT1A receptor [2]) [%] | Structure (SMILES) | IC50 [1] [µM] | Emax [1, 6] [%]
0.022 |  |  |  |  | 0.00519 |  | 96 | 0.0475 | 0 | CCCN(C(C)CCc1c[nH]c2ccc(F)cc12)C1COc2c(F)ccc(C(N)=O)c2C1 (single isomer, unassigned) [Compound 12a, 8-fluoro-3-[[3-(5-fluoro-1H-indol-3-yl)-1-methylpropyl](propyl)amino]-3,4-dihydro-2H-chromene-5-carboxamide] | 0.323 | 
0.05 | 0.366 | 73.5 | 0.0626 |  | 0.0194 |  |  |  | 78 | CCCN(C(C)CCc1c[nH]c2ccc(F)cc12)C1COc2c(F)ccc(C(N)=O)c2C1 (single isomer, unassigned) [Compound 12b, 8-fluoro-3-[[3-(5-fluoro-1H-indol-3-yl)-1-methylpropyl](propyl)amino]-3,4-dihydro-2H-chromene-5-carboxamide] |  | 
0.121 |  |  |  |  | 0.0488 |  | 100 | 0.0737 | 0 | CCCN(C(C)CCc1c[nH]c2ccc(F)cc12)C1COc2c(F)ccc(C(N)=O)c2C1 (single isomer, unassigned) [Compound 12c, 8-fluoro-3-[[3-(5-fluoro-1H-indol-3-yl)-1-methylpropyl](propyl)amino]-3,4-dihydro-2H-chromene-5-carboxamide] | 3 | 
0.0235 |  |  |  |  | 0.0243 |  |  | 0.0766 | 0 | CCCN(C(C)CCc1c[nH]c2ccc(C#N)cc12)C1COc2c(F)ccc(C(N)=O)c2C1 (single isomer, unassigned) [Compound 13a, 3-[[3-(5-cyano-1H-indol-3-yl)-1-methylpropyl](propyl)amino]-8-fluoro-3,4-dihydro-2H-chromene-5-carboxamide] | 0.534 | 100
0.037 | 1.47 | 56.5 | 0.139 |  | 0.152 |  |  |  | 68 | CCCN(C(C)CCc1c[nH]c2ccc(C#N)cc12)C1COc2c(F)ccc(C(N)=O)c2C1 (single isomer, unassigned) [Compound 13b, 3-[[3-(5-cyano-1H-indol-3-yl)-1-methylpropyl](propyl)amino]-8-fluoro-3,4-dihydro-2H-chromene-5-carboxamide] |  | 
0.144 |  |  |  |  | 0.128 |  |  | 0.846 | 0 | CC(Cc1c[nH]c2ccc(F)cc12)CN(CC1CC1)[C@H]1COc2c(F)ccc(C(N)=O)c2C1 (single isomer, unassigned) [Compound 155b] |  | 
